According to ChEMBL document CHEMBL1201862, “PubChem BioAssay data set” (2004):
Active and inactive are the calls of the source. Unless noted, the calls are words filed in the database; no cut-off is given here.

Assays:
[1] = target: ADP-ribosylation factor GTPase-activating protein 1 (Rattus norvegicus, UniProt Q62848); experiment: Fluorescence polarization-based biochemical high throughput dose response screening assay to identify inhibitors of ADP-ribosylation factor GTPase activating protein 1 (ARFGAP1).; type: functional
ADP-ribosylation factor GTPase-activating protein 1, sequence (Q62848 whole entry): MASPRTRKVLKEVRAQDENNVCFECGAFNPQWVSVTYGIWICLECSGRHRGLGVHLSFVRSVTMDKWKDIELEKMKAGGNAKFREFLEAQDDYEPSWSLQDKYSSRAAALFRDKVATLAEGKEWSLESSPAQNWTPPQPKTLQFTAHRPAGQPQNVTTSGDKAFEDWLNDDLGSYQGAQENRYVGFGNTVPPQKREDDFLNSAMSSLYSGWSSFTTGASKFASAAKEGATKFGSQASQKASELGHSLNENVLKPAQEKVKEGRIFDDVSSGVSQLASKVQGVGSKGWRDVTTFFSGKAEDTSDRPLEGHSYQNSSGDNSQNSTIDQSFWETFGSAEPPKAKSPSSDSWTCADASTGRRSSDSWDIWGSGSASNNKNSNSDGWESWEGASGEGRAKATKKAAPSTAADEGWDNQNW

[2] = target: Botulinum neurotoxin type F (Clostridium botulinum, UniProt P30996); experiment: High-throughput multiplex microsphere dose response for inhibitors of toxin protease, specifically Botulinum neurotoxin light chain F protease, compounds from Cherry Pick 02.; type: functional; details: read-out: EC50_MICROM
Botulinum neurotoxin type F, sequence (P30996 1-436 limits assumed): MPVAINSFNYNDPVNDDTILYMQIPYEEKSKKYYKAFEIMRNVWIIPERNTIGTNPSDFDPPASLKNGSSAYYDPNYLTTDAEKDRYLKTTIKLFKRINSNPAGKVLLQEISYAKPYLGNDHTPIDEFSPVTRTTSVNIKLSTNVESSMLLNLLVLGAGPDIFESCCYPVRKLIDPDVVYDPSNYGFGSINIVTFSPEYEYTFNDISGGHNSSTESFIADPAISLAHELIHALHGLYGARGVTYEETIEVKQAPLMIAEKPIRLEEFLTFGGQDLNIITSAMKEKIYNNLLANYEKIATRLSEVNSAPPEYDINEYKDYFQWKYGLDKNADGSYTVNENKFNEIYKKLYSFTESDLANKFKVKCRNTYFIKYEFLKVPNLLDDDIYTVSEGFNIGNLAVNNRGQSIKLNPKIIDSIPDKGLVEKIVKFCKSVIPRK

[3] = target: Platelet-activating factor acetylhydrolase (Mus musculus, UniProt Q60963); experiment: Late stage assay provider results from the probe development effort to identify inhibitors of pPAFAH: fluorescence-based dose-response biochemical gel-based competitive Activity-Based Protein Profiling (ABPP) assay for SAR compounds.; type: functional
Platelet-activating factor acetylhydrolase, sequence (Q60963 whole entry): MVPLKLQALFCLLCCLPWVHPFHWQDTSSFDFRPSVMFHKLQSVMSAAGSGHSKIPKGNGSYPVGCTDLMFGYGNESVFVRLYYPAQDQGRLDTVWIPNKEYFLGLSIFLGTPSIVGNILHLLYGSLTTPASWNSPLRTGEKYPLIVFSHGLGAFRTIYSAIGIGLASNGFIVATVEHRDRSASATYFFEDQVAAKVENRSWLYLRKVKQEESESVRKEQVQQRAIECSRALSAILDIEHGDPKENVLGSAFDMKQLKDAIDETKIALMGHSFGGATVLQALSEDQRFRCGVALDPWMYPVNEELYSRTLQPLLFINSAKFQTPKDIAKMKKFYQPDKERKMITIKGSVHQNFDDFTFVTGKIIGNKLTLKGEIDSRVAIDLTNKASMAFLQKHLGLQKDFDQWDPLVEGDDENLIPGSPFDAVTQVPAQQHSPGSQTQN

[4] = target: T1, Low molecular weight phosphotyrosine protein phosphatase (Homo sapiens, UniProt P24666); type: functional; details: read-out: IC50_Mean;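 further: Dose-response confirmation assay measuring inhibition of LMPTP enzyme activity by fluorescence intensity read-out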
T1 sequence (P24666 whole entry): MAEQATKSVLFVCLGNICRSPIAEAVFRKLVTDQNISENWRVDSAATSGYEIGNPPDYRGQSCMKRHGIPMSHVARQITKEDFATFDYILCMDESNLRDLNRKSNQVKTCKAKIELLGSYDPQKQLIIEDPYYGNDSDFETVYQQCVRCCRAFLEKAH

[5] = L. donovani amastigote growth inhibition, dose response, axenic amastigotes, plate reader, cherry pick (AID 651891); type: functional, cell-based; details: Leishmania donovani
[6] = Inhibition of T. cruzi Tulahuen strain amastigotes in L-6 muscle cells Measured in Cell-Based and Microorganism Combination System Using Plate Reader - 2138-03_Inhibitor_Dose_CherryPick_Activity.; type: functional; details: Rattus norvegicus, L6
[7] = intracellular Trypanosoma cruzi inhibitors in host cells – cell-based, plate reader, cherry-pick samples, set 3, dose response (AID 651818); type: functional;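 further: compounds incubated with infected cells for about four days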
[8] = T. cruzi intracellular amastigote growth inhibition, dose response, imaging, CA-I/72 strain, bovine embryo skeletal muscle, dry powder (AID 651885); type: functional, cell-based
[9] = cytotoxicity in L-6 rat myocytes, dose response, cytotoxicity control, cell-based, plate reader, cherry-pick (AID 651896); type: functional
[10] = Inhibition of Plasmodium falciparum NF54 Measured in Cell-Based System Using Plate Reader - 2138-11_Inhibitor_Dose_CherryPick_Activity.; type: functional
[11] = T. b. rhodesiense proliferation inhibition, dose response, STIB900 strain, plate reader, cherry pick (AID 651893); type: functional, cell-based; details: Trypanosoma brucei
[12] = target: T2, Replicative DNA helicase DnaB (Mycobacterium tuberculosis, UniProt P9WMR3); experiment: DnaB intein splicing inhibitors, dose response, biochemical, cell-free fluorescence (AID 449749); type: functional
T2 sequence (P9WMR3 whole entry): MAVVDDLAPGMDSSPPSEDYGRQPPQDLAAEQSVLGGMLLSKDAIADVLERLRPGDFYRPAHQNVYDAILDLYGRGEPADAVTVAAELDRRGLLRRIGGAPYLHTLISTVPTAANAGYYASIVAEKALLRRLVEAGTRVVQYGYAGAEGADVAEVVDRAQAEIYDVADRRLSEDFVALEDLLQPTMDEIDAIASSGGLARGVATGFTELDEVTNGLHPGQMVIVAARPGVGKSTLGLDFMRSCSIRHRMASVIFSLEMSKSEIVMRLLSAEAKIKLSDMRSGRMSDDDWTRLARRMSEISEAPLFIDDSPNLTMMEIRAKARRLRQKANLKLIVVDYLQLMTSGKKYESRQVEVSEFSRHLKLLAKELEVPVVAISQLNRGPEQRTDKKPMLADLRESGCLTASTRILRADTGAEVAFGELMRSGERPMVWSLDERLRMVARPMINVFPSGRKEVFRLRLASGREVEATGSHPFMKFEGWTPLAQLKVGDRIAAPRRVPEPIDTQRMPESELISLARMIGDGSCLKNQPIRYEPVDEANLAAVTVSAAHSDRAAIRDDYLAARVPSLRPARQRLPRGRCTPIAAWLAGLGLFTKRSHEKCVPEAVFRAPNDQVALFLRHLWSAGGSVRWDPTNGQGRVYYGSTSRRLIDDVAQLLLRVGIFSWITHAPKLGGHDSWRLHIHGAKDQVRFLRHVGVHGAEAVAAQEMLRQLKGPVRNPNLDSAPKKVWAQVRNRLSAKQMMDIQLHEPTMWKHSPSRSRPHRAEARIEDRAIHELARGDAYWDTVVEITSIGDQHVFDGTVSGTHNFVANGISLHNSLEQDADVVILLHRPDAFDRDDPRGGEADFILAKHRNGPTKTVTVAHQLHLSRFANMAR

Protein RecA = target: T3, Protein RecA (Mycobacterium tuberculosis, UniProt P9WHJ3); experiment: Fluorescence Cell-Free Homogeneous Dose Retest to Identify Inhibitors of RecA-Intein Splicing Activity. [Related pubchem assays (depositor defined):AID2097, AID2223, AID489010, AID492950]; type: functional
T3 sequence (P9WHJ3 whole entry): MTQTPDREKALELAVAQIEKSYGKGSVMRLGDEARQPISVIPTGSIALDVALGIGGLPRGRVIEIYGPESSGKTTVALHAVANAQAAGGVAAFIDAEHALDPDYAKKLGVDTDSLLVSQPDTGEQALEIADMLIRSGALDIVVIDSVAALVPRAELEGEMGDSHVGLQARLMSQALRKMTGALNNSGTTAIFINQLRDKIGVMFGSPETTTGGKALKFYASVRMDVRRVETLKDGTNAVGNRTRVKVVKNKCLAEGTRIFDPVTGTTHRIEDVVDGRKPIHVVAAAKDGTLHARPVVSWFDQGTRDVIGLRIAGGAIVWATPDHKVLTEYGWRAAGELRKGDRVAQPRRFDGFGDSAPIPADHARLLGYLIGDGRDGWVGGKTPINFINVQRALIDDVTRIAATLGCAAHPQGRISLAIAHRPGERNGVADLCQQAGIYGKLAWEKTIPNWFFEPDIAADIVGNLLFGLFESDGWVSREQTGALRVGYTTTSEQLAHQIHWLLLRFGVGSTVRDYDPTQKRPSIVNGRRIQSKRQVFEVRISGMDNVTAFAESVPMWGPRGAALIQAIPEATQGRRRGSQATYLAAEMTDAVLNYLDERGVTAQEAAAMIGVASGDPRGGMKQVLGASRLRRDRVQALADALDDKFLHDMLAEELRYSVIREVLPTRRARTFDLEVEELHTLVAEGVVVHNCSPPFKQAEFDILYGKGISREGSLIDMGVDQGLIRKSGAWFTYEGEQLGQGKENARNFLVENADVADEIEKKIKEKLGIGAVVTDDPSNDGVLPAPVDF

Nonstructural protein 1 = Nonstructural protein 1 (Influenza A virus, UniProt Q194T2); type: functional, Influenza A virus (A/California/07/2009(H1N1))
Nonstructural protein 1, sequence (Q194T2 whole entry): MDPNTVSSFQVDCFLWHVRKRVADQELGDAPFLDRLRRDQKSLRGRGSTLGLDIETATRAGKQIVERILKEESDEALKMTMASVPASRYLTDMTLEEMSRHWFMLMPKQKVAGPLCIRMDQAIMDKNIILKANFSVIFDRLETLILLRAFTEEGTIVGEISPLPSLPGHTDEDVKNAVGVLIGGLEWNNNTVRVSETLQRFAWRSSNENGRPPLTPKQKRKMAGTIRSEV

[13] = target: Apoptotic protease-activating factor 1 (Homo sapiens, UniProt O14727); type: functional
Apoptotic protease-activating factor 1, sequence (O14727 whole entry): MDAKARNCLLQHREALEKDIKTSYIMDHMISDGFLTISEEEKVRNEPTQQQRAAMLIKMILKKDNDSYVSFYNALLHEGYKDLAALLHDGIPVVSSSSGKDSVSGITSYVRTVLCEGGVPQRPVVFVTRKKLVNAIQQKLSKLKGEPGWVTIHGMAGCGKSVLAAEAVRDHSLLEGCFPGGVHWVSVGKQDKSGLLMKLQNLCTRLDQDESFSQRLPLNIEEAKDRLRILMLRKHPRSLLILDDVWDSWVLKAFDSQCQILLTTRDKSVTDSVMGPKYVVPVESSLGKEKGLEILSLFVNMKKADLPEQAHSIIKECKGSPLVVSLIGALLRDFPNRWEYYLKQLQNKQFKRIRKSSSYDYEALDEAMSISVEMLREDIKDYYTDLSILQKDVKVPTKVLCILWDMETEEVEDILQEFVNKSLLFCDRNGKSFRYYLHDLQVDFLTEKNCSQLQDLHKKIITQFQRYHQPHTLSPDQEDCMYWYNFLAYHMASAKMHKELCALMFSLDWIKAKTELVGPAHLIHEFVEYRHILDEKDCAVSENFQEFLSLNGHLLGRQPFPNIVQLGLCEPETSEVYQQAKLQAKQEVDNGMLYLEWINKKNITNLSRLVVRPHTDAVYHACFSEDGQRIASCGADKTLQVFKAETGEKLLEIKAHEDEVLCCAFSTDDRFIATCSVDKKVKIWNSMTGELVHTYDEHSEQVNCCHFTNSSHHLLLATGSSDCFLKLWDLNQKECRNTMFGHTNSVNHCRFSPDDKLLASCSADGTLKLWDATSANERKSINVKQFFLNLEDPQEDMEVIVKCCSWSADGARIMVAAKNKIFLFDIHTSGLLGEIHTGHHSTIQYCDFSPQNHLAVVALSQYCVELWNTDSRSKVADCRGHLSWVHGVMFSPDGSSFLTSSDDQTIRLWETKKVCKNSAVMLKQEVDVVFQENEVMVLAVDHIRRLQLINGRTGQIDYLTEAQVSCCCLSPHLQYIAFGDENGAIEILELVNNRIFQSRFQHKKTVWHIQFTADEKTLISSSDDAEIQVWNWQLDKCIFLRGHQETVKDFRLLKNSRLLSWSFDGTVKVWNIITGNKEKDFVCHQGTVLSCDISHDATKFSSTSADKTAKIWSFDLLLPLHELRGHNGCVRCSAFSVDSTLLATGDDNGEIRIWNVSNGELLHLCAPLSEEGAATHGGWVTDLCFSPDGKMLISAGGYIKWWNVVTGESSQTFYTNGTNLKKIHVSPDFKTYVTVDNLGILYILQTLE

[14] = growth suppression of beta-catenin-knockout colon cells, dose response, cell-based, HCT116, human colon tumor (AID 1045); type: functional;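 further: HCT116 colon tumor cells with beta catenin knocked out; cells exposed to compound for 60 hours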
[15] = growth suppression of PTEN-null colon cells, dose response, cell-based, HCT116 PTEN knockout (AID 1047); type: functional;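 further: HCT116 colon tumor cells with PTEN knocked out; cells exposed to compound for 60 hours before readout; potency for loss of cell viability measured by luminescence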
[16] = target: DNA repair and recombination protein RAD54-like (Homo sapiens, UniProt Q92698); experiment: inhibitors of human RAD54 branch migration, confirmation, biochemical, fluorescence, cherry-picked samples, dose series (AID 651657); type: functional
DNA repair and recombination protein RAD54-like, sequence (Q92698 whole entry): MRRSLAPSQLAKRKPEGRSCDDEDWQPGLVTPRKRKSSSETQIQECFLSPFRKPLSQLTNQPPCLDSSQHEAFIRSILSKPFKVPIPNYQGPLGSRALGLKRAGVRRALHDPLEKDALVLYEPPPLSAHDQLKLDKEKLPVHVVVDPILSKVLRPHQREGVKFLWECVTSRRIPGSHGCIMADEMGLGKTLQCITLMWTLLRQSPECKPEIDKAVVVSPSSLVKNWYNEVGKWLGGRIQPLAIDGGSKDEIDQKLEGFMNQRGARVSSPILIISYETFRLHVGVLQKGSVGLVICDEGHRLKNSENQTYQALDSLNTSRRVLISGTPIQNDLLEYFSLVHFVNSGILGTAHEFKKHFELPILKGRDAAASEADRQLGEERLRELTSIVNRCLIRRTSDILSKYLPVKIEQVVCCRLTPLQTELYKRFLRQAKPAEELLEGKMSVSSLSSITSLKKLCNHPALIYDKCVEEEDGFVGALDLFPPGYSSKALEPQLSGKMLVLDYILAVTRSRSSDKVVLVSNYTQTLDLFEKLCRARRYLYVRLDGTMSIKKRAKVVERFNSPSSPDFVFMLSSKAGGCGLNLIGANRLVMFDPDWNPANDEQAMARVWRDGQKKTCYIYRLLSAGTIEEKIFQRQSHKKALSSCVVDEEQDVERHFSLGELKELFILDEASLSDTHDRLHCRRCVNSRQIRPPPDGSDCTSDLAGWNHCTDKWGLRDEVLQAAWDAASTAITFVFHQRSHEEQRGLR

Cytochrome P450 3A4 = Cytochrome P450 3A4 (Homo sapiens, UniProt P08684);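 further: CYP3A4 tested as one member of a cytochrome P450 panel screen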
Cytochrome P450 3A4, sequence (P08684 whole entry): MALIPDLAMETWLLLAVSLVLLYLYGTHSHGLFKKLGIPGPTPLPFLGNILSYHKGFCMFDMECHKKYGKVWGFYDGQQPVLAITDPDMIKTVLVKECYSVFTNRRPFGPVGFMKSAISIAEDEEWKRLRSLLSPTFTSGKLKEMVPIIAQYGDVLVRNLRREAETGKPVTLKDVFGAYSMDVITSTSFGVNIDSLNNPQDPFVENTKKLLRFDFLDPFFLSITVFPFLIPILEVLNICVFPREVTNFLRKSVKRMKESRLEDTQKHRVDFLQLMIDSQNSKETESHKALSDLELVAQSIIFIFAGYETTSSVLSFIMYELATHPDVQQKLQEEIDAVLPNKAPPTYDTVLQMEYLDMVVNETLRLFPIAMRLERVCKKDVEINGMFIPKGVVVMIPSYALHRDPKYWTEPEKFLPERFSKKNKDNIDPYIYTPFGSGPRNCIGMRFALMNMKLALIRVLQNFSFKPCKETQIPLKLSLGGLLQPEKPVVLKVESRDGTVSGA

COc1ccc(-n2c(=O)c3c4c(sc3n3cnnc23)CC(C)CC4)cc1 (centres undefined)
IC50 [1]: 23.1 µM (inactive)

COc1ccc(C(CNC(=O)c2ccc(OC)c(S(=O)(=O)N3CCCC3)c2)N2CCCC2)cc1 (centres undefined)
EC50 [2]: > 20 µM (inactive)

Cc1cc(N2CCN(C(=O)Oc3ccc([N+](=O)[O-])cc3)CC2)c2ccccc2n1
IC50 [3]: 0.179 µM (active) | IC50 [4]: 25.4 µM (inactive)

C[C@H]1CN([C@@H](C)CO)C(=O)c2cccc(NC(=O)c3ccncc3)c2O[C@@H]1CN(C)Cc1ccc(-c2ccccc2)cc1
IC50 [5]: 6.47 µM (inactive) | IC50 [6]: 1.14 µM (active) | AC50 [7]: 0.075 µM (active) | IC50 [8]: 10 µM (inconclusive) | IC50 [9]: 17.5 µM (active) | IC50 [10]: 1.14 µM (active) | IC50 [11]: 6.41 µM (inactive)

Cc1nn(-c2ccccc2)c(O)c1/C=N/NC(=O)c1ccc(O)cc1O
AC50 [12]: 2.5 µM (active) | EC50 (Protein RecA): 3.13 µM (active) | IC50 (Nonstructural protein 1): 3.09 µM (active) | IC50 [13]: 5.15 µM (active)

CCOc1ccc2nc(C)cc(Nc3ccc4c(c3)OCCO4)c2c1
EC50 [14]: 11.3 µM (active) | EC50 [15]: 14.7 µM (active) | AC50 [16]: 25 µM (active) | AC50 (Cytochrome P450 3A4): 25.1 µM (inconclusive)
